Test results from patent US20210395305A1, “PEPTIDE FOR COSMETIC APPLICATION” (COLOSSEUM COMBINATORIAL CHEMISTRY CENTRE FOR TECHNOLOGY …, priority 2018, published 2021).
Read-outs that look alike come from different tables or passages of the source. Ends that are not written are not given here.

Columns and labels:
[1] = Skin distribution of NGF1-14 gel preparation, HPLC-UV of epidermis and dermis extracts; type: in vivo, rat; settings: 0.1% gel, following LFS, compared to vehicle
Description: Distribution experiments were carried out to evaluate the ability of NGF1-14 gel preparation to penetrate the corneal stratus and reach the dermis, also by using sonophoresis-like strategies to facilitate skin penetration.
Tape-striping and ultrasounds were applied on the shaved dorsal area of female adult Sprague Dawley (SD) rats (10-12 months).
Low-Frequency Sonophoresis (LFS) was applied using a Sonics Ultrasonic Processor Model VCX 400 operating at a frequency of 20 KHz (tip displacement of about 2 cm, continuous mode) for 6 or 10 minutes, according to common clinical practices, since a prolonged use of sonophoresis is known to increase skin permeation but also to a considerable thermal damage, which is not appropriate for the use (Ref. International Journal of Health Sciences & Research 477 Vol. 5; Issue: 5; May 2015: A Review on Ultrasound Parameters and Methods of Application in Transdermal Drug Delivery).
Vehicle control and NGF1-14 gel preparation were administered on the skin portion pre-treated with LFS (S) or on shaved/tape striping skin (NS).
Treatment was repeated after two hours, and rats were sacrificed to dissect skin samples 2 hours after the second gel/NGF mimetic application. […]
Quantification of NGF 1-14 was determined by HPLC-UV, on a reverse phase C4 column, eluting with phosphate buffer (pH 7.4) and acetonitrile. […]

normal human melanocytes = experiment: Tanning action: melanin content by ELISA; type: cell-based; settings: cultured for a week, various concentrations
Description: The effect of topical application of NGF1-14 on the activation of melanocytes to produce melanin has been assessed.
According to already set up protocols, primary cell cultures of normal human melanocytes were seeded in Petri dishes and cultured for a week, with and without the presence of NGF 1-14 at various concentrations. The melanin content was measured by enzyme immunoassay ELISA.

[2] = pKa by potentiometric pH-metric titration (Sirius T3); type: physicochemical; settings: 0.15 M KCl solution (ISA water), 25±1° C.
Description: Experimental pKa as well as partition and distribution coefficients (log P and log D) were determined using an automated potentiometric titrator Sirius T3 (Sirius Analytical Instruments Ltd., East Sussex, UK) equipped with an Ag/AgCl double junction reference pH electrode, a Sirius D-PAS spectrometer and a turbidity sensing device. The pH electrode was calibrated titrimetrically in the pH range 1.8-12.2. An overhead stirrer was used and a temperature probe monitored the temperature during the course of the titration. The titration experiments were conducted in 0.15 M KCl solution (ISA water) under an argon atmosphere at a temperature of 25±1° C. All tests were performed using standardized 0.5 M KOH and 0.5 M HCl as titration reagents, for the partition coefficient tests a saturated Octanol in ISA water (5% of ISA water) was used as partition solvent. The pKa is determined by potentiometric method by pH-metric titration. The powder (around 0.5 mg) was dissolved in 1.5 ml of ISA water and the titration was performed in triplicate in the pH range 2.0-12.0. Log P is performed in triplicate by dissolving the powder (around 0.7 mg) in 1 ml of ISA water followed by pH metric titration in three different percentage of Octanol (generally 50%, 60%, 70%). The predicted pKa and the calculated log P for the instrumental model was performed using ACD/Percepta.

Elastin = Elastin in dermis by Elisa, single administration test; type: in vivo, rat
Description: (§1) Since the proteins of extracellular matrix collagen and elastin are involved in wound repair, skin aging and photo-aging, the effect of topical application of NGF1-14 on the levels of these two proteins was also analyzed.
(§2) Pro-Collagen I and Elastin were measured by using commercial Elisa kits, first in a single administration test, followed by a two weeks administration test.
(§3) A similar trend was observed by analyzing the two proteins: an increase of both pro-Collagen I (A) and Elastin (B) was detected in dermis of NGF1-14 treated rats at 0.1% dose, after sonication. The effect was less appreciable without applying the ultrasounds.
(§4) The protective action of NGF1-14 at 0.1% dose (P 0.1%) was evaluated on adult skin exposed to sub-erythematous levels of UV-B (MED=60 mJ/cm^2 twice a day) first in a single administration test (one day) then for three weeks before the treatment. This experimental procedure is also refereed as Photo-AGing model (PAG) since it induces structural and molecular changes occurring in aging.

TrkA = TrkA phosphorylation by Western Blot; type: in vivo, rat; settings: dermis samples, with or without LFS, compared to vehicle controls; FIG. 4
pro-Collagen I = experiment: Pro-Collagen I in dermis by Elisa, single administration test; type: in vivo, rat
Description: as §1, §2, §3, §4

[3] = target: T1, NGF receptors, TrkA and p75 (Rattus norvegicus, UniProt P35739); experiment: PC12-Luci c-fos promoter luciferase reporter assay; type: cell-based; settings: for Ec50 (luminescence): PC12-Luci cells, 4 h at 37° C.
T1 construct: PC12-Luci cells, which endogenously express the NGF receptors, TrkA and p75; endogenous in cells; host or cells: PC12-Luci (rat pheochromocytoma clone B9 with the human c-fos promoter-luciferase reporter)
T1 sequence (P35739 33-799): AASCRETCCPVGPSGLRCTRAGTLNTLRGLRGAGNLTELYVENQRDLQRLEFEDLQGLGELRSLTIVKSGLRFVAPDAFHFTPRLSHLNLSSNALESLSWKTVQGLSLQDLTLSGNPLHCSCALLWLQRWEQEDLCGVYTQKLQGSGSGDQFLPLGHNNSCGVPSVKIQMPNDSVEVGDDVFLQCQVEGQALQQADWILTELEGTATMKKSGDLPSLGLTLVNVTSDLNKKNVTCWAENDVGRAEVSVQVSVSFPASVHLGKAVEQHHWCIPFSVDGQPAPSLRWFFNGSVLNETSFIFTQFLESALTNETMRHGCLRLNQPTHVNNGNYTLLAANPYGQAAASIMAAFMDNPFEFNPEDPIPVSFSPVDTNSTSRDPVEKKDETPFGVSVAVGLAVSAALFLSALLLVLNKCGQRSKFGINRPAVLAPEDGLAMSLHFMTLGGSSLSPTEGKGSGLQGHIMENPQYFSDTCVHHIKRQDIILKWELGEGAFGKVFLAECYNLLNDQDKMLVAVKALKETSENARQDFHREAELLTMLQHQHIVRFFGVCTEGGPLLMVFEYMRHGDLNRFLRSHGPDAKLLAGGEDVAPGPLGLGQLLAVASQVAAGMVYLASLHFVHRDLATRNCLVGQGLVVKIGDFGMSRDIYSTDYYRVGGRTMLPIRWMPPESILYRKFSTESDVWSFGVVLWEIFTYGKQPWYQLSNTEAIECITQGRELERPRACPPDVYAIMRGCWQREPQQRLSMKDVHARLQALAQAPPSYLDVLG
Description: NGF treatment of rat pheochromocytoma cell line (PC12) results in c-fos mRNA and protein expression (J. Milbrandt, “Nerve growth factor rapidly induces c-fos mRNA in PC12 rat pheochromocytoma cells”, Proc Natl Acad Sci USA. 1986 July; 83(13):4789-93).
Starting from the work of Milbrandt, the Applicant monitored the activation of NFG receptor by using a clone (B9) stably transfected with the human c-fos promoter driving a luciferase reporter gene (PC12-Luci). This clone was used to set up a functional and quantitative assay for the characterization of the activity of NGF1-14.
The experiments were performed in PC12-Luci cells, which endogenously express the NGF receptors, TrkA and p75. Cells were maintained in the following complete culture medium comprising: • DMEM-F12 mixture (DMEM-F12 Glutamax; Life Technologies, GIBCO 10565-018) • 5% fetal bovine serum (FBS, Sigma Aldrich, F7524) • 10% horse serum (HS, Sigma Aldrich, H1138) • 1% penicillin-streptomycin (Life Technologies, GIBCO 15140-122)
For passaging, cells were gently washed with PBS and then incubated with trypsin for 5 min at room temperature or 37° C. Media was added and cells were resuspended (6-8 times).
Experiments were performed in sestuplicate, in black 96 well previously coated with 50 μg/ml collagen type I.
PC-12-Luci cells were seeded at 25000/well in 100 μl complete growth medium. 24h later, cell medium was carefully removed. Cells were then incubated with five concentrations (range 30 ng/ml-300 μg/ml, 1:10 serial dilutions) of NGF1-14 in standard Tyrode buffer with 0.1% BSA (50 μl/well) for 4 h at 37° C. The reference Negermin™ compound (by MimeTech Srl) has been added at 30 μg/ml, as reference. The stock solution of NGF1-14 was resuspended in sterile water, aliquoted and stored at −20° C. The stock solution of Negermin™ compound was resuspended in formulation buffer and stored at −20° C.
After the incubation, the basal level of luminescence was monitored for 30 seconds, by using EnSpire multimode plate reader (PerkinElmer). Then, a Triton-Luciferin mix was added to cells (50 μl/well), in a 1:1 ratio, leading to cell lysis. The obtained luminescence signal was monitored for other 60 seconds. […]
All luminescence values were normalized versus the basal level of luminescence. The response value was calculated as the mean of luminescence of the kinetic recorded.
Data were further analyzed (e.g. calculation of dose-response curves and EC50 values) and graphs plotted using GraphPad Prism (GraphPad Software, Inc.). […]

[4] = without applying the ultrasounds

Row | Substance | NGF1-14 level in epidermis ([1]; FIG. 3A) | NGF1-14 level in dermis ([1]; FIG. 3B) | melanin content (normal human melanocytes) | pKa ([2]; read-out: Acid pKa) | pKa ([2]; read-out: Base pKa) | Elastin in dermis (Elastin; 0.1% dose, after sonication, FIG. 5B) | Elastin in dermis (Elastin; [4]) | phosphorylation levels of TrkA (TrkA) | pro-Collagen I in dermis (pro-Collagen I; 0.1% dose, after sonication, FIG. 5A) | Collagen I in dermis (pro-Collagen I; [4]) | level of basal luminescence ([3]; 30 ng/ml-300 μg/ml, 4 h) | in vitro potency compared with reference standard ([3]; Negermin™ compound added at 30 μg/ml) | Ec50 (luminescence) [3] [ng/mL]
1 | SSSHPIFHRGEFSV [NGF1-14, SSSHPIFHRGEFSV] | significant increase | significant increase | An increase was observed | 4.42 ± 0.05 | 7.41 ± 0.07 | increase | slight increase | increased phosphorylation levels of TrkA | increase | comparable to the positive control value | increases the level of basal luminescence in a dose-dependent manner | higher than reference standard Negermin™ compound, but lower than rhNGF | 290.95
2 | rhNGF: human recombinant NGF | – | – | – | – | – | – | – | – | – | – | – | – | 1.4
